Measured values reported in patent publication US8232269B2, “Amide compounds useful in therapy” (Pfizer Inc., priority 2008, dated 2012).

Target: T1, Progesterone Receptor (PR) (Homo sapiens, UniProt P06401)
T1 construct: endogenous in cells; host or cells: T47D human breast mammary carcinoma cells
T1 sequence (P06401 1-933): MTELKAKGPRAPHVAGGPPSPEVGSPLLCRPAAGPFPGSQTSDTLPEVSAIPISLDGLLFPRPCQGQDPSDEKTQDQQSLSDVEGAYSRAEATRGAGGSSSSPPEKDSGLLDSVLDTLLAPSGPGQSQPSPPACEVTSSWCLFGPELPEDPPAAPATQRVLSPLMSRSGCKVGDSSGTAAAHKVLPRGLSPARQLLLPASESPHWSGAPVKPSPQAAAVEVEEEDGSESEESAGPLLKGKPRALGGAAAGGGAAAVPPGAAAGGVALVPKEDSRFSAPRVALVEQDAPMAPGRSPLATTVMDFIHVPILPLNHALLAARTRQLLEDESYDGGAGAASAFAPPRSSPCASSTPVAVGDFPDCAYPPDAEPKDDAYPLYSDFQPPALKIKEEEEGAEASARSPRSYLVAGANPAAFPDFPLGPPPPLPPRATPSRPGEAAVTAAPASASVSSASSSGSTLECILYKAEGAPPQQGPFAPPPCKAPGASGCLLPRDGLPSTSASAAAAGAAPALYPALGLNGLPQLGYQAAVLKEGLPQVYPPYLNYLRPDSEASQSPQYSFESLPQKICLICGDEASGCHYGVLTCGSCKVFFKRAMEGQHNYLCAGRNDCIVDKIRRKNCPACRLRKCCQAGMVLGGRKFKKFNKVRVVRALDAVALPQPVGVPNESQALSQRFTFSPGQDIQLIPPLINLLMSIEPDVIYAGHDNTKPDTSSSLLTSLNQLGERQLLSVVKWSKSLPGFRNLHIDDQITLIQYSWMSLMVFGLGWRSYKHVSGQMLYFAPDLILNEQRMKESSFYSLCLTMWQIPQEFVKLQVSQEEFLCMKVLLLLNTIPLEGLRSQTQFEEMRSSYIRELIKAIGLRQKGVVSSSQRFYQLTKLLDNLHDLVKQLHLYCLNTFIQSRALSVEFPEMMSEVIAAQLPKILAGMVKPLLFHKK
Test: In vitro functional assay for progesterone receptor (PR) antagonists: inhibition of progesterone-induced alkaline phosphatase expression in T47D cells
Format: cell-based
Details: antagonist format, 5 nM progesterone, Ki calculated from IC50 with the Cheng-Prusoff equation
Summary of the method: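 Antagonist format: T47D cells (8750/well, phenol red-free DMEM + 5% CS-FCS) given half-log compound dilutions plus 5 nM progesterone (final), incubated overnight (≥16 h) at 37 °C. Alkaline phosphatase read by CSPD chemiluminescence after freeze-thaw lysis; 0.1 μM RU-486 final defines minimum.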

Ki [nM] | Structure (SMILES)
5.06 | Cc1cc(-c2nn(C(C)C)c(C(=O)NC3CC3)c2C#N)ccc1C#N [Example 121]
5.18 | CNC(=O)c1c(C#N)c(-c2ccc(C#N)c(C)c2)nn1C(C)C [Example 122]
5.49 | Cc1cc(-c2nn(C(C)C)c(C(=O)NC(C)C)c2C#N)ccc1C#N [Example 123]
5.93 | Cc1cc(-c2nn(C(C)C)c(C(=O)NC[C@H](C)O)c2C#N)ccc1C#N [Example 124]
8.28 | CC(C)n1nc(-c2ccc(C#N)cc2)c(C2CC2)c1C(=O)NC1CCS(=O)(=O)C1 (stereo not drawn) [Example 125]
11.3 | Cc1c(-c2ccc(C#N)cc2)nn(C2CCOC2)c1C(=O)NCC1CC1 (stereo not drawn) [Example 127]
11.9 | Cc1cc(-c2nn(C(C)C)c(C(=O)NC[C@@H](C)O)c2C#N)ccc1C#N [Example 128]
13.2 | CC(C)n1nc(-c2ccc(C#N)cc2)c(Cl)c1C(=O)NC[C@H](C)O [Example 129]
14.8 | CCc1c(-c2ccc(C#N)cc2)nn(C(C)CC)c1C(=O)NCC(C)(C)O (stereo not drawn) [Example 130]
17.8 | CC(C)n1nc(-c2ccc(C#N)cc2)c(Cl)c1C(=O)NC1CC1 [Example 132]
19.3 | CC(C)n1nc(-c2ccc(C#N)cc2)c(C#N)c1C(=O)NC[C@@H](C)O [Example 133]
21.9 | CC(C)n1nc(-c2ccc(C#N)cc2)c(C#N)c1C(=O)NCC(C)(C)O [Example 134]

Structure (SMILES) | Ki [nM]
Cc1cc(-c2nn(C(C)C)c(C(=O)NCC(C)(C)O)c2C#N)ccc1C#N [Example 126] | 10.2

Tested on: ovarian cancer patients
Test: not given
Details: RU486 200 mg/day; ovarian cancer patients refractory to cisplatin and paclitaxel; cited from earlier work

Structure (SMILES) | patients with a clinical response [%]
CC#C[C@]1(O)CC[C@H]2[C@@H]3CCC4=CC(=O)CCC4=C3[C@@H](c3ccc(N(C)C)cc3)C[C@@]21C [RU486, mifepristone] | 26.5

Tested on: Brca1/p53-deficient mice
Test: not given
Details: treatment of Brca1/p53-deficient mice; cited from earlier work

Structure (SMILES) | effect on mammary tumorigenesis
CC#C[C@]1(O)CC[C@H]2[C@@H]3CCC4=CC(=O)CCC4=C3[C@@H](c3ccc(N(C)C)cc3)C[C@@]21C [RU486, mifepristone] | prevented mammary tumorigenesis
